From patent US11820961B2, “Musk compositions and methods of use thereof” (Takasago International Corporation, priority 2015, dated 2023)

Experiments:
salivary alpha-amylase = salivary alpha-amylase level before and after a stress test (kinetic reaction assay kit); type: in vivo, human; conditions: Table 6; before vs immediately after ten minute stress test; about 10-15 panelists; DPG = +60.7%
Excerpt: Salivary alpha-amylase is widely used as a biomarker for acute stress. The purpose of this study was to investigate the influence of individual fragrance compounds, particularly musk compounds, on a subject's salivary alpha-amylase levels before and after exposure to a stressor. The subject sniffed each musk compound, then was exposed to a stressor. The goal was to identify one or more specific musk compounds which caused the least amount of change in salivary alpha-amylase levels or decreased a subject's salivary alpha-amylase levels compared to before administration, thereby reducing or inhibiting a response to stress stimuli. […] The p values of the control as compared to each musk compound were calculated as follows: rosamusk (p=0.0366), habanolide (p=0.1163), ambrettolide (p=0.1397).
Twelve to fourteen female panelists age 30-45 participated in this study for each of the test materials. Stress was induced using a timed ten minute mathematical/word test in a small group competition setting. The musk material was introduced at intervals during the stress test.
Saliva was collected before and immediately after the stress test. Saliva samples were assayed for salivary alpha-amylase activity using a commercially available kinetic reaction assay kit (Salimetrics®, State College, Pa.).
(§1) Fourteen female panelists age 30-45 participated in this study. Stress was induced using a timed ten minute mathematical/word test in a small group competition setting. Fragrance was introduced at intervals during the stress test. Saliva was collected before (Pre) and immediately after (Post) the stress test. Saliva samples were assayed for salivary alpha-amylase using a commercially available kinetic reaction assay kit and for salivary cortisol using a highly sensitive enzyme immunoassay kit (Salimetrics®, State College, Pa.).
(§2) Stress was induced in a number of panelists (about 10-15) for each tested compound using a timed ten minute mathematical/word test in a small group competition setting. The test compound was introduced at intervals during the stress test.
(§3) Saliva was collected before and immediately after the stress test. Saliva samples were assayed for salivary cortisol levels and salivary alpha-amylase activity using a commercially available kinetic reaction assay kit (Salimetrics®, State College, Pa.).
(§4) Methodology for number of drops. Ten to twenty-four panelists age 30-45 participated in this study. The amount of fragrance tested was divided equally and applied onto 6 blotter cards each 3 by 5 inches in size. They were weighed and placed in the test room 30 minutes before the stress test to equilibrate.
(§5) Stress was induced using a timed ten-minute mathematical/word test in a small group competition setting. The blotter cards were removed and weighed again after the stress test. […]

salivary cortisol = salivary cortisol level before and after a stress test (enzyme immunoassay kit); type: in vivo, human; conditions: Table 6; before vs immediately after ten minute stress test; about 10-15 panelists; DPG = −10.9%
Excerpt: Salivary cortisol is widely used as a biomarker for stress. The purpose of this study was to investigate the influence of individual fragrance compounds, particularly musk compounds, on a subject's cortisol levels before and after exposure to a stressor. The subject sniffed each musk compound, then was exposed to a stressor. The goal was to identify one or more specific musk compounds which caused the least amount of change in cortisol levels or decreased a subject's cortisol levels compared to before administration, thereby reducing or inhibiting a response to stress stimuli.
as §1, §2, §3, §4, §5

[1] = chassis-air partition coefficient, BC-162 shampoo chassis; type: physicochemical
Excerpt: (§6) The chassis-air partition coefficient can be measured for materials in various chassis.
(§7) Ki,chassis-air is the chassis-air partition coefficient for component i in the fragrance formula
(§8) Ci, chassis is the concentration of component i in the product formula chassis in molarity, M
(§9) Ci, air is the concentration of component i in the headspace air in equilibrium with the formula chassis in molarity, M
(§10) For the “Example Accord” in the BC-162 shampoo chassis components, the log chassis-air partition coefficients are as listed in Table 11.

[2] = chassis-air partition coefficient, APDO soft solid chassis; type: physicochemical
Excerpt: as §6, §7, §8, §9, §10

Structure (SMILES) | Salivary Amylase Data (change in salivary alpha-amylase) (salivary alpha-amylase) | Cortisol Data (change in salivary cortisol) (salivary cortisol) | logK, BC162 (log chassis-air partition coefficient) [1] | logK, APDO Soft Solid (log chassis-air partition coefficient) [2]
CC(=O)c1cc2c(cc1C)C(C)(C)C(C)C2(C)C (stereo not drawn) [Phantolide, 1-(1,1,2,3,3,6-hexamethyl-2H-inden-5-yl)ethanone] | −19.2% | −12.3% |  | 
CC1=CCC(C/C=C(\C)CO)C1(C)C (stereo not drawn) [Hindinol ®, (E)-2-methyl-4-(2,2,3-trimethyl-1-cyclopent-3-enyl)but-2-en-1-ol] | +82.3% | −25.0% |  | 
CC(=O)C(C)CC[C@H]1CCC(C)C1(C)C (stereo partly drawn) [3-methyl-5-((1R)-2,2,3-trimethylcyclopentyl)pentan-2-one] | −6.1% |  |  | 
CC1CCCCCCCCCCCCC(=O)C1 [L-Muscone] | +14.5% | +25.6% |  | 
C=C.CCCCCCCCCCCC(=O)O [ZENOLIDE, ethylene dodecanoate] |  |  | 6.131 | 6.966
